From patent US7265125B2, “Neuropeptide Y antagonists” (Hoffmann-La Roche Inc., priority 2000, dated 2007) come the findings set out here.

In data set [1] the target is T1, mouse NPY5-receptor (mNPY5) (Mus musculus, UniProt O70342).
T1 construct: The full-length cDNA encoding the mouse NPY5 (mNPY5) receptor was amplified from mouse brain cDNA; expressed in transfected cells; membrane preparation
T1 sequence (O70342 1-466): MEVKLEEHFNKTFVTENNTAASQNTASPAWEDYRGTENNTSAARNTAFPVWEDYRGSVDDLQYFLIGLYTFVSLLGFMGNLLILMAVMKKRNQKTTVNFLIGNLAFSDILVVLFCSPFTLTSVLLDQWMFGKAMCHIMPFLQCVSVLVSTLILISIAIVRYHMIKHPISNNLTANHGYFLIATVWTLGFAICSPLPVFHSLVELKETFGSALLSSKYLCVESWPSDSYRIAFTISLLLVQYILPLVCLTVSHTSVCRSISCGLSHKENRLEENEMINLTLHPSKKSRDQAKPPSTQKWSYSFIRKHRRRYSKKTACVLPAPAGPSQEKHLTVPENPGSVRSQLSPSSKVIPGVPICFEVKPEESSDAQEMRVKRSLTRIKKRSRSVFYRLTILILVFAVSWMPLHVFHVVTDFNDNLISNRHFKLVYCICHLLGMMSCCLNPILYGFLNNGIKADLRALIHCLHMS
Kind of data set: Radioligand competition binding. The conditions noted are these: HEK293 membranes expressing recombinant mNPY5; 100 pM [125I]labelled peptide YY; 1 h at 22° C. The source says:
The full-length cDNA encoding the mouse NPY5 (mNPY5) receptor was amplified from mouse brain cDNA using specific primers, designed based on the published sequence, and Pfu DNA-Polymerase (Stratagene). The amplification product was subcloned into the mammalian expression vector pcDNA3 using Eco RI and XhoI restriction sites. Positive clones were sequenced and one clone, encoding the published sequence was selected for generation of stable cell clones.
Human embryonic kidney 293 (HEK293) cells were transfected with 10 μg mNPY5 DNA using the lipofectamine reagent (Gibco BRL) according to the manufacturer's instruction. Two days after transfection, geneticin selection (1 mg/ml) was initiated and several stable clones were isolated. One clone was further used for pharmacological characterization.
Human embryonic kidney 293 cells (HEK293), expressing recombinant mouse NPY5-receptor (mNPY5) were broken by three freeze/thawing cycles in hypotonic Tris buffer (5 mM, pH 7.4, 1 mM MgCl2), homogenized and centrifuged at 72,000×g for 15 min. The pellet was washed twice with 75 mM Tris buffer, pH 7.4, containing 25 mM MgCl2 and 250 mM sucrose, 0.1 mM phenylmethylsulfonylfluoride and 0.1 mM 1,10-pheneanthrolin, resuspended in the same buffer and stored in aliquots at −80° C. Protein was determined according to the method of Lowry using bovine serum albumine (BSA) as a standard. […]
On the technique in general: Loss of bound radioactivity is the signal in a displacement assay; it reports binding, not function.

Turning to `Cc1cc(N2CCCCC2)c2ccc(-c3ccccc3)cc2n1` [Example 1.16, 2-methyl-7-phenyl-4-piperidin-1-yl-quinoline], the melting point was 111 to 112 °C.

Take `COc1ccc(-c2ccc3c(N4CCCC4)cc(C)nc3c2)cc1` [Example 1.6, 7-(4-methoxy-phenyl)-2-methyl-4-pyrrolidin-1-yl-quinoline]: the IC50 in data set [1] came to 60 nM.

Consider `Cc1cc(N2CCCCC2)c2ccc(-c3cccs3)cc2n1` [Example 1.15, 2-methyl-4-piperidin-1-yl-7-thiophen-2-yl-quinoline], for which the melting point was 122 to 123 °C.

With `Cc1cc(N2CCCCC2)c2ccc(-c3ccc4[nH]ccc4c3)cc2n1` [Example 1.17, 7-(1H-Indol-5-yl)-2-methyl-4-piperidin-1-yl-quinoline], the IC50 in data set [1] was 100 nM.

The melting point is the temperature of the solid-liquid transition. As a reminder, the IC50 is the concentration at which inhibition is half-maximal.
